These results are taken from article PMC4525181, “Structural and dynamic insights into the energetics of activation loop rearrangement in FGFR1 kinase” (Nature Communications, 2015).

Several values for one entry are separate records, joined by “and”; a condition that tells them apart may be missing. Equal values may be shown once. Read-outs that look alike come from different tables or passages of the source.

Data set [1] addresses Asp641 (UniProt position 641, VMKIADFGLAR). Briefly: kinetics (surface plasmon resonance). As to conditions: 298 K; PBS (pH 7.0-7.4) or 100 mM NaCl with 50 mM Bis-Tris (pH 5.5-6.5); PBS (pH 7.0-7.4) or 50 mM Bis-Tris (pH 5.5-6.5) with 100 mM NaCl. Both contain 50 µM EDTA, 0.05% Surfactant P20 and 1% DMSO.; Non-phosphorylated, initially ligand-free FGFR1 kinase domain immobilised on an NTA chip. The rate reports on the DFG-in to DFG-out transition required for ponatinib binding.

Data set [2] deals with T1, FGFR1 kinase domain (Homo sapiens, UniProt P11362, C488A/C584S).
T1 construct: Human FGFR1 consisting of residues Ala458-Glu765; made in house; host or cells: Escherichia coli, co-expressed with PTP1B
Briefly: SPR kinetic analysis of inhibitors binding to FGFR1 kinase domain. As to the method:
The hexa-histidine tag was cleaved from protein by overnight treatment with TEV protease and concomitant dialysis, immediately after the IMAC step. Purified protein in a buffer comprising 20 mM Tris-HCl, pH 8.0, 20 mM NaCl, 2 mM TCEP, was snap frozen in liquid nitrogen and stored at −80 °C. For NMR studies, an additional mutation (Asp623Ala) was introduced to improve the yield of stable isotope-labelled FGFR1 kinase protein[22]. Uniform isotopic labelling was achieved by growing E. coli BL21 (DE3) Star cells in D2O-based M9 minimal medium supplemented with ^15NH4Cl (Cambridge Isotope Laboratories or Sigma Aldrich) together with U-[^1H,^13C]- or (for fully deuterated samples) U-[^2H,^13C]-glucose (Cambridge Isotope Laboratories or Sigma Aldrich) as sole nitrogen and carbon sources, respectively. Purification was by IMAC and ion exchange chromatography; the 6 × His tag was not cleaved from the protein used for NMR. Human Abl consisting of residues Ser248-Val534 with an engineered TEV-cleavable N-terminal 6 × His tag and mutation Asn355Ser was expressed and purified as described[50] with minor modifications. For biophysical studies, the 6 × His tag was retained intact for both kinases as it was used for immobilization on a nitrilotriacetic acid (NTA) sensor chip.
Non-phosphorylated, histidine-tagged FGFR1 and non-phosphorylated, histidine-tagged Abl were immobilized as the ligand onto NTA sensor chips using a capture coupling method. The NTA surface was first activated with 500 μM NiSO4 in immobilization buffer. The carboxymethyl dextran surface was then activated with a 1:1 ratio of 0.4 M EDC and 0.1 M NHS. Hexa-histidine-tagged protein was diluted into immobilization buffer to a concentration of 30 μg ml^−1, and immobilized onto the surface with a 7-min injection. Remaining activated groups were blocked with 0.1 M Tris, pH 8.0. […] PBS, pH 7.4, 50 μM EDTA and 0.05% Surfactant P20 (v/v) (for Abl supplemented with 10% glycerol (v/v)) were used as immobilization buffer. […] SPR experiments were performed using the Biacore 3000, Biacore S51 and Biacore T200 biosensors (GE Healthcare), with NTA and series S NTA sensor chips (GE Healthcare). All FGFR1 binding experiments were done using PBS (pH range 7.0–7.4), 50 μM EDTA, 0.05% Surfactant P20 (v/v) and 1% DMSO (v/v) or 50 mM Bis-Tris (pH range 5.5–6.5), 100 mM NaCl, 50 μM EDTA, 0.05% Surfactant P20 (v/v) and 1% DMSO (v/v), as running buffer. All Abl binding experiments were conducted using PBS, pH 7.4, 50 μM EDTA, 0.05% Surfactant P20 (v/v), 10% glycerol (v/v) and 1% DMSO (v/v) as running buffer. […] Finally, they were diluted 1:100 (v/v) in running buffer without DMSO to achieve the target concentration resulting in a final DMSO concentration of 1% (v/v).
The highest compound concentration varied, but for all analytes five sequential injections with constant injection time and a constant dilution factor were done. All analyte concentrations were injected in one cycle, one after the other for 120 s with a short dissociation phase in between injections (∼60 s) and with a longer dissociation phase at the end of the cycle (1,000 to 20,000 s that varied depending on the expected dissociation rate constant of the analyte). Zero-buffer blank injections were included for referencing. Biacore T200 evaluation software and BIAevaluation 4.1 software, respectively, were used for processing and analysing data. Rate constants were calculated globally from the obtained sensorgram data by fitting to a 1:1 interaction model. Representative sensorgrams are shown in Supplementary Fig. 6. Multi-cycle kinetic analysis was carried out as previously described. Binding affinities (KD) were calculated from the equation KD=koff/kon.

Data set [3] concerns the target T1, FGFR1 kinase domain. Briefly: Transition state thermodynamics from linear Eyring plots (SPR rate constants vs temperature). Type of data set: binding. To be noted: Eyring analysis. As to the method:
(§1) Binding affinities (KD) were therefore determined from dosage experiments and binding responses at equilibrium were fit to a 1:1 steady-state affinity model available within the Scrubber 2 software (BioLogic Software Ltd., Campbell, Australia).
(§2) Transition state thermodynamic quantities were determined from the kinetic association (kon) and dissociation (koff) rate constants as previously described[64] by plotting ln (kh/kBT) versus 1/T according to the linear Eyring equation (2).
Here k is either the association rate constant (kon) or the dissociation rate constant (koff). ΔH and ΔS are the changes in […] enthalpy and entropy of binding, respectively, while the superscript ‘*' denotes that these refer to a transition state.

Data set [4] deals with T2, FGFR1 Asp623Ala mutant (Homo sapiens, UniProt P11362, C488A/C584S/D623A).
T2 construct: a construct spanning residues Ala458 to Glu765 of human FGFR1; made in house; host or cells: Escherichia coli
In words: SPR binding to Asp623Ala mutant of FGFR1 kinase domain. As to conditions: data not shown. An excerpt: For our studies of the FGFR1 kinase domain, we have used a construct spanning residues Ala458 to Glu765 of human FGFR1 that contains two mutations (Cys488Ala and Cys584Ser) designed to stabilize the enzyme against covalent aggregation. The protein is non-phosphorylated after co-expression with PTP1B and purification from Escherichia coli. An additional mutation of the catalytic aspartate (Asp623Ala) was introduced for NMR studies to increase further the yield of stable isotope-labelled protein. […] In addition, we have confirmed using surface plasmon resonance (SPR) that binding parameters for a close analogue of the canonical FGFR1 inhibitor PD173074 (ref. [23]; henceforth referred to as PDA; Fig. 1a; Supplementary Fig. 1) are unaltered for the Asp623Ala mutant relative to the kinase-active form (data not shown).

Data set [5] has as its target T1, FGFR1 kinase domain. Briefly: SPR thermodynamic analysis (non-linear van't Hoff). Type of data set: binding. To be noted: T0=298 K, SPR temperature dependence. As to the method: as §1, §2
Data set [6] addresses T1, FGFR1 kinase domain. Briefly: Isothermal titration calorimetry (ITC) of inhibitors binding to FGFR1. As to conditions: for heat capacity change ΔCp: ITC titrations at 10-35 °C, slope of ΔH vs T; for -TΔS (ITC) / N (ITC stoichiometry) / ΔG (ITC) / ΔH (ITC): 298.15 K. As for the experimental part: ITC experiments were carried out using an ITC200 instrument (Microcal Inc., GE Healthcare)[59]. Final ligand concentrations were achieved by diluting ligand stock solutions in DMSO 1:50 (v/v) in the experimental buffer, resulting in a final DMSO concentration of 2% (v/v). Protein concentration was determined by measuring the absorbance at 280 nm. DMSO concentration in the protein solution was adjusted to 2% (v/v). ITC measurements were routinely performed at 25 °C in 20 mM Tris, pH 7.8, 20 mM NaCl, 2 mM TCEP and 2% DMSO (v/v). The titrations were performed on 10−20 μM FGFR1 in the 200 μl sample cell using 2 μl injections of 0.1−0.2 mM ligand solution every 120 s. To correct for heats of dilution and mixing, the final baseline consisting of small peaks of identical size at the end of the experiment was subtracted. Representative ITC titrations are shown in Supplementary Fig. 2. To determine the heat capacity ΔCp of ligands binding to FGFR1, ITC titrations were performed as described above at 10, 15, 20, 25, 30 and 35 °C. Binding enthalpies derived from ITC experiments were plotted as ΔH against T and ΔCp are given by the slope of the linear regression analysis according to equation (3) (Supplementary Fig. 7): […]

The test system of data set [7] is N550K mutation in FGFR2. As to conditions: N550K mutant relative to wild-type, BaF3 cells; cited from earlier work.

T1 sequence (P11362 458-765 C488A/C584S): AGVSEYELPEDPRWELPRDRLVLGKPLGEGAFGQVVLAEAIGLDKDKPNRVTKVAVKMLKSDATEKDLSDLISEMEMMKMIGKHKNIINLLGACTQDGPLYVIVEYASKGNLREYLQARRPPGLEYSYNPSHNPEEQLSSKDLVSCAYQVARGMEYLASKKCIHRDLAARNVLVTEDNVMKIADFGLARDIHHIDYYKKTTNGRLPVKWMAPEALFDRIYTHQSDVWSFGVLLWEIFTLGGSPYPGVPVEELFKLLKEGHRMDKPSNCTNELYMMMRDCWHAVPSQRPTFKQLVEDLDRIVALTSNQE
T2 sequence (P11362 458-765 C488A/C584S/D623A): as the sequence (P11362 458-765 C488A/C584S) above, with D166A counted along it

Take “Fibroblast growth factor receptor 1 (FGFR1) kinase domain (Homo sapiens; C488A;C584S)”: in data set [1], the pKa came to 6.25.
With `CCN(CC)CCCNc1ncc2cc(-c3cc(OC)cc(OC)c3)c(NC(=O)NC(C)(C)C)nc2n1` [PDA], the “KD, fold weaker in the presence of 1.2 M GdmCl” value in data set [2] (1.2 M GdmCl vs absence of GdmCl) is reported as around 2 fold. The “association rate constant as a function of pH” value in data set [2] (SPR 298 K, pH decreased from 7.4 to 5.5) is “no dependence on pH”. The kon in data set [2] (SPR, 1.2 M GdmCl in PBS running buffer, read-out: association rate constant kon in the presence of 1.2 M GdmCl) worked out at 680000 M⁻¹ s⁻¹. Also, in data set [2] (SPR, 1.2 M GdmCl in PBS running buffer, read-out: dissociation rate constant koff in the presence of 1.2 M GdmCl), the koff turned out to be 0.0018 s⁻¹. In addition, the Kd in data set [2] (SPR, 298 K, pH 7.4, read-out: KD (koff/kon)) turned out to be 5.7 nM. Moreover, the kon in data set [2] (SPR, 298 K, pH 7.4, read-out: association rate constant kon) amounted to 1.6e+06 M⁻¹ s⁻¹. Moreover, in data set [2] (SPR, 298 K, pH 7.4, read-out: dissociation rate constant koff), the koff stood at 0.0092 s⁻¹. For the same compound, in data set [3] (association phase), the “ΔG# ass (transition state free-energy barrier, association)” value was 8.7 ± 1.8 kcal/mol and 8.7 kcal/mol; the “ΔH# ass (transition state enthalpy, association)” value is 16.6 ± 1.3 kcal/mol and 16.6 kcal/mol; the “−TΔS# ass (transition state entropy, association)” value is -7.9 ± 1.3 kcal/mol and -7.9 kcal/mol. In addition, in data set [3] (dissociation phase), the “-TΔS# diss” value was -5.3 ± 1.8 kcal/mol, the “ΔG# diss” value stood at 19.5 ± 2.6 kcal/mol and the “ΔH# diss” value was 24.8 ± 1.8 kcal/mol. In addition, the “binding parameters for Asp623Ala mutant relative to the kinase-active form” value in data set [4] is recorded as “unaltered”. For the same compound, in data set [5], the “ΔG0 van't Hoff” value was -11.1 ± 0.02 kcal/mol; the “ΔH0 van't Hoff” value was -11.5 kcal/mol and -11.5 ± 0.8 kcal/mol; the “−TΔS0 van't Hoff” value came out at 0.4 ± 0.8 kcal/mol. Further, the “heat capacity change ΔCp” value in data set [6] was -359 cal mol^−1 K^−1. This compound also showed a Kd in data set [6] (ITC, 298 K) of 8.8 nM. Also, in data set [6] (ITC), the “-TΔS (ITC)” value came to 1.1 ± 0.0 kcal/mol; the “N (ITC stoichiometry)” value came out at 0.8±0.02; the “ΔG (ITC)” value is -11.0 ± 0.0 kcal/mol; the “ΔH (ITC)” value is -12.1 kcal/mol and -12.1 ± 1.8 kcal/mol.
For `CCN(CC)CCCCNc1ncc2cc(-c3cc(OC)cc(OC)c3)c(NC(=O)NC(C)(C)C)nc2n1` [PD173074], the “effect of FGFR2 N550K mutation on inhibitor potency” value in data set [7] was “confers resistance”.
Consider `Cc1ccc(C(=O)Nc2ccc(CN3CCN(C)CC3)c(C(F)(F)F)c2)cc1C#Cc1cnc2cccnn12` [ponatinib], for which the “effect of FGFR2 N550K mutation on inhibitor potency” value in data set [7] was “enhanced inhibitory potency against this mutant relative to wild-type”.
With SU5402, in data set [5], the “ΔG0 van't Hoff” value is -9.5 ± 0.02 kcal/mol; the “ΔH0 van't Hoff” value was -14.2 kcal/mol and -14.2 ± 0.8 kcal/mol; the “−TΔS0 van't Hoff” value came out at 4.8 ± 0.8 kcal/mol. For the same compound, the “heat capacity change ΔCp” value in data set [6] is given as -172 cal mol^−1 K^−1. For the same compound, in data set [6] (ITC), the “-TΔS (ITC)” value came to 2.7 ± 0.2 kcal/mol; the “N (ITC stoichiometry)” value was found to be 1.0±0.04; the “ΔG (ITC)” value is -9.7 ± 0.1 kcal/mol; the “ΔH (ITC)” value was -12.4 kcal/mol and -12.4 ± 0.2 kcal/mol.
